According to patent US12214092B2, “Systems and methods for treating biological fluids” (Cerus Corporation, priority 2017, dated 2025):
Like-named read-outs stand apart in the source and are kept apart here.

Experiments:
[1] = tested on: E. coli; test: Photochemical inactivation of E. coli in human plasma with amotosalen and UVA, colony forming unit assay; type: cell-based; conditions: for E. coli Log Reduction: ~6.4 J/cm^2, n = 2
[2] = S-59 photoconversion in apheresis platelets in 100% plasma, 15 μM S-59, HPLC; type: physicochemical
From the text: Additional units were illuminated with the INT-100 device at ˜3.6 J/cm^2 for comparison or maintained as an untreated control.

[3] = tested on: S. epidermidis; test: Amotosalen and UV light (265-385 nm LEDs) treatment of S. epidermidis in plasma, colony forming unit assay; type: cell-based; conditions: 15 μM amotosalen, ~3 J/cm^2, plasma
From the text: This system comprised single arrays facing (e.g., opposing) a platform positioned for the illumination of biological fluids placed on the platform (see e.g., FIG. 5). System controls provided for adjustment of the LEDs during treatment of the biological fluid samples, controlling both the timing and intensity of illumination by the LEDs to achieve a desired light UV light dose. Evaluation of photochemical conversion, photoproduct formation, pathogen inactivation, and plasma and/or platelet quality parameters are performed for each light source wavelength as described previously. In one study using the device, photochemical inactivation of various bacteria were tested for each of the above-referenced LEDs together with amotosalen. The bacteria included E. coli (Gram negative), S. epidermidis (Gram positive), and P. acnes (anaerobe). As there are known germicidal effects of ultraviolet light with wavelengths in the UVC and UVB range, the study was controlled to determine for each LED wavelength the total inactivation levels, as well as inactivation levels specifically resulting from the UV light (without added amotosalen) or the photochemical treatment process itself.

[4] = tested on: E. coli; test: Amotosalen and two sequential UV light doses (UVC + UVA) treatment of E. coli in plasma, colony forming unit assay; type: cell-based; conditions: 15 μM amotosalen, titer pre-UV 6.57; for Titer Post-Second: ~3 J/cm^2 each
Method: Additionally, any two or more wavelengths of narrow bandwidth light are evaluated in combination, such as for example, photochemical treatment of a biological fluid using amotosalen and ultraviolet light of a first peak wavelength and ultraviolet light of a second peak wavelength, sequentially or concurrently. More specifically, in one example pathogen inactivation of E. coli (Gram negative) and S. epidermidis (Gram positive) bacteria was evaluated using amotosalen and the device with LEDs of wavelengths described in Example 8. […] The spiked plasma units were divided into control (no amotosalen+UV light) and treatment (with amotosalen) conditions, with amotosalen used at 15 μM concentration. The units were aliquoted into six-well plates (5 mL/well) for illumination. Pre-illumination samples were taken and control bacterial titers determined using standard colony forming unit assay. […] Data for pre-illumination titers, post-first illumination titer, post-second illumination titer, and post-treatment (after second illumination) residual amotosalen (S-59) are shown in the following Tables 40-41.

[5] = S-59 photoconversion and photoproducts in platelets in 65% PAS III/35% plasma, 150 μM S-59, HPLC; conditions: for % Residual S-59: 3x (~10.8 J/cm^2)
Method: Platelets collected in PAS/Plasma (65% PAS III/35% Plasma) were pooled and split into three 285 mL units for the study. Amotosalen (S-59) was added to a concentration of 150 μM, and the units were illuminated one time (˜3.6 J/cm^2 total dose), two times (˜7.2 J/cm^2 total dose), or three times (˜10.8 J/cm^2 total dose) with the narrow band 340 nm LEDs or 365 nm LEDs using the device of Example 1, or with the INT-100 device. Efficiency of S-59 photoconversion, as well as photoproducts formation, was assessed post-UVA illumination by HPLC as in previous Examples.
HPLC analysis of post-illumination samples was used to determine area counts and relative levels for photoproducts generated from the various treatment conditions.

[6] = tested on: platelets
Method: Platelets collected in PAS/Plasma (65% PAS III/35% Plasma) were pooled and split into three 285 mL units for the study. Amotosalen (S-59) was added to a concentration of 150 μM, and the units were illuminated one time (˜3.6 J/cm^2 total dose), two times (˜7.2 J/cm^2 total dose), or three times (˜10.8 J/cm^2 total dose) with the narrow band 340 nm LEDs or 365 nm LEDs using the device of Example 1, or with the INT-100 device.
Additionally, various measures of platelet quality were evaluated by standard methodologies immediately after three times UVA illumination (˜10.8 J/cm^2), to identify potential differences among the light sources.

Cc1oc2c(C)c3oc(=O)cc(C)c3cc2c1COCCN [S-59, 3-(2-aminoethoxymethyl)-2,5,9-trimethylfuro[3,2-g]chromen-7-one] gave a Log reduction ([1]; 340 nm, 1.5 μM, ~3 J/cm^2) of 1.3 log, a Post-UVA titer ([1]; 340 nm, 1.5 μM, ~3 J/cm^2) of 5.0 log cfu/mL and a Pre-UVA titer ([1]; 340 nm, 1.5 μM, ~3 J/cm^2) of 6.3 log cfu/mL. For the same molecule, the Log reduction ([1]; 340 nm, 1.5 μM, ~6 J/cm^2) was 1.5 log, the Post-UVA titer ([1]; 340 nm, 1.5 μM, ~6 J/cm^2) was 4.8 log cfu/mL and the Pre-UVA titer ([1]; 340 nm, 1.5 μM, ~6 J/cm^2) was 6.3 log cfu/mL. The Log reduction ([1]; 340 nm, 1.5 μM, ~9 J/cm^2) was 1.4 log, the Post-UVA titer ([1]; 340 nm, 1.5 μM, ~9 J/cm^2) was 4.9 log cfu/mL and the Pre-UVA titer ([1]; 340 nm, 1.5 μM, ~9 J/cm^2) was 6.3 log cfu/mL. It also gave a Log reduction ([1]; 340 nm, 15 μM, ~3 J/cm^2) of 4.7 log, a Post-UVA titer ([1]; 340 nm, 15 μM, ~3 J/cm^2) of 1.4 log cfu/mL and a Pre-UVA titer ([1]; 340 nm, 15 μM, ~3 J/cm^2) of 6.1 log cfu/mL. For the same molecule, the Log reduction ([1]; 340 nm, 15 μM, ~6 J/cm^2) was 5.6 log, the Post-UVA titer ([1]; 340 nm, 15 μM, ~6 J/cm^2) was 0.5 log cfu/mL and the Pre-UVA titer ([1]; 340 nm, 15 μM, ~6 J/cm^2) was 6.1 log cfu/mL. The Log reduction ([1]; 340 nm, 15 μM, ~9 J/cm^2) was 5.6 log, the Post-UVA titer ([1]; 340 nm, 15 μM, ~9 J/cm^2) was 0.5 log cfu/mL and the Pre-UVA titer ([1]; 340 nm, 15 μM, ~9 J/cm^2) was 6.1 log cfu/mL. It also gave a Log reduction ([1]; 340 nm, 150 μM, ~3 J/cm^2) of over 7.0 log, a Post-UVA titer ([1]; 340 nm, 150 μM, ~3 J/cm^2) of under −0.7 log cfu/mL and a Pre-UVA titer ([1]; 340 nm, 150 μM, ~3 J/cm^2) of 6.3 log cfu/mL. The “E. coli Log Reduction” value ([1]; 340 nm, 220 mL plasma, 15 μM) was 6.0 log, the “E. coli Log Reduction” value ([1]; 340 nm, 350 mL plasma, 15 μM) was 4.6 log and the Log reduction ([1]; INT-100, 15 μM, ~3 J/cm^2) was 4.2 log. It also gave a Post-UVA titer ([1]; INT-100, 15 μM, ~3 J/cm^2) of 2.0 log cfu/mL, a Pre-UVA titer ([1]; INT-100, 15 μM, ~3 J/cm^2) of 6.2 log cfu/mL and a Log reduction ([1]; INT-100, 150 μM, ~3 J/cm^2) of over 7.1 log. For the same molecule, the Post-UVA titer ([1]; INT-100, 150 μM, ~3 J/cm^2) was under −0.7 log cfu/mL, the Pre-UVA titer ([1]; INT-100, 150 μM, ~3 J/cm^2) was 6.4 log cfu/mL and the “E. coli Log Reduction” value ([1]; INT-100, 220 mL plasma, 15 μM) was 5.3 log. For the same molecule, the “E. coli Log Reduction” value ([1]; INT-100, 350 mL plasma, 15 μM) was 4.4 log, the S-59 concentration post-illumination ([2]; 340 nm LED 1× (~3.6 J/cm^2), <LOQ) was 0.86 µM and the S-59 concentration post-illumination ([2]; 340 nm LED 2× (~7.2 J/cm^2), <LOQ) was 0.19 µM. For the same molecule, the S-59 concentration post-illumination ([2]; 340 nm LED 3× (~10.8 J/cm^2), <LOQ) was 0.00 µM, the S-59 concentration post-illumination ([2]; INT-100, ~3.6 J/cm^2) was 4.11 µM and the “Log reduction from S-59” value ([3]; 265 nm) was 0.89 log. The Log reduction total ([3]; 265 nm) was 5.23 log, the “Log reduction from S-59” value ([3]; 280 nm) was 1.56 log and the Log reduction total ([3]; 280 nm) was 5.02 log. For the same molecule, the “Log reduction from S-59” value ([3]; 310 nm) was 6.68 log, the Log reduction total ([3]; 310 nm) was 7.19 log and the “Log reduction from S-59” value ([3]; 325 nm) was 7.17 log. For the same molecule, the Log reduction total ([3]; 325 nm) was 7.18 log, the “Log reduction from S-59” value ([3]; 340 nm) was 7.18 log and the Log reduction total ([3]; 340 nm) was 7.28 log. The “Log reduction from S-59” value ([3]; 365 nm) was 7.32 log, the Log reduction total ([3]; 365 nm) was 7.26 log and the “Log reduction from S-59” value ([3]; 385 nm) was 1.85 log. The Log reduction total ([3]; 385 nm) was 1.76 log, the “Titer Post-Second” value ([4]; UV 1 265 nm then UV 2 325 nm) was under −0.11 and the “Titer Post-Second” value ([4]; UV 1 265 nm then UV 2 340 nm) was under −0.11. For the same molecule, the “Titer Post-Second” value ([4]; UV 1 265 nm then UV 2 365 nm) was under −0.11, the “Titer Post-First” value ([4]; UV 1 265 nm ~3 J/cm^2 (then 325 nm)) was 3.58 and the “Titer Post-First” value ([4]; UV 1 265 nm ~3 J/cm^2 (then 340 nm)) was 3.86. The “Titer Post-First” value ([4]; UV 1 265 nm ~3 J/cm^2 (then 365 nm)) was 2.95, the “Titer Post-Second” value ([4]; UV 1 280 nm then UV 2 325 nm) was under −0.11 and the “Titer Post-Second” value ([4]; UV 1 280 nm then UV 2 340 nm) was under −0.11. The “Titer Post-Second” value ([4]; UV 1 280 nm then UV 2 365 nm) was under −0.11, the “Titer Post-First” value ([4]; UV 1 280 nm ~3 J/cm^2 (then 325 nm)) was 3.66 and the “Titer Post-First” value ([4]; UV 1 280 nm ~3 J/cm^2 (then 340 nm)) was 4.15. The “Titer Post-First” value ([4]; UV 1 280 nm ~3 J/cm^2 (then 365 nm)) was 4.11, the “Titer Post-Second” value ([4]; UV 1 325 nm then UV 2 265 nm) was under −0.11 and the “Titer Post-Second” value ([4]; UV 1 325 nm then UV 2 280 nm) was under −0.11. For the same molecule, the “Titer Post-First” value ([4]; UV 1 325 nm ~3 J/cm^2 (then 265 nm)) was under −0.11, the “Titer Post-First” value ([4]; UV 1 325 nm ~3 J/cm^2 (then 280 nm)) was under −0.11 and the “Titer Post-Second” value ([4]; UV 1 340 nm then UV 2 265 nm) was under −0.11. For the same molecule, the “Titer Post-Second” value ([4]; UV 1 340 nm then UV 2 280 nm) was under −0.11, the “Titer Post-First” value ([4]; UV 1 340 nm ~3 J/cm^2 (then 265 nm)) was under −0.11 and the “Titer Post-First” value ([4]; UV 1 340 nm ~3 J/cm^2 (then 280 nm)) was under −0.11. The “Titer Post-Second” value ([4]; UV 1 365 nm then UV 2 265 nm) was under −0.11, the “Titer Post-Second” value ([4]; UV 1 365 nm then UV 2 280 nm) was under −0.11 and the “Titer Post-First” value ([4]; UV 1 365 nm ~3 J/cm^2 (then 265 nm)) was under −0.11. The “Titer Post-First” value ([4]; UV 1 365 nm ~3 J/cm^2 (then 280 nm)) was under −0.11, the S-59 concentration post-illumination ([5]; 340 nm LED, ~3.6 J/cm^2) was 9 µM and the S-59 concentration post-illumination ([5]; 340 nm LED, ~7.2 J/cm^2) was 2 µM. The S-59 concentration post-illumination ([5]; 340 nm LED, ~10.8 J/cm^2, <LOQ) was 0.98 µM, the HPLC area counts ([5]; 340 nm, 0 J/cm^2) was 1826 and the “% Residual S-59” value ([5]; 340 nm) was 0.5%. The HPLC area counts ([5]; 340 nm, 3.6 J/cm^2) was 106, the HPLC area counts ([5]; 340 nm, 7.2 J/cm^2) was 24 and the HPLC area counts ([5]; 340 nm, 10.8 J/cm^2) was 11. For the same molecule, the S-59 concentration post-illumination ([5]; 365 nm LED, ~3.6 J/cm^2) was 42 µM, the S-59 concentration post-illumination ([5]; 365 nm LED, ~7.2 J/cm^2) was 15 µM and the S-59 concentration post-illumination ([5]; 365 nm LED, ~10.8 J/cm^2) was 7 µM. For the same molecule, the HPLC area counts ([5]; 365 nm, 0 J/cm^2) was 1753, the “% Residual S-59” value ([5]; 365 nm) was 4.9% and the HPLC area counts ([5]; 365 nm, 3.6 J/cm^2) was 514. For the same molecule, the HPLC area counts ([5]; 365 nm, 7.2 J/cm^2) was 183, the HPLC area counts ([5]; 365 nm, 10.8 J/cm^2) was 84 and the HPLC area counts ([5]; INT 100, 0 J/cm^2) was 1753. For the same molecule, the “% Residual S-59” value ([5]; INT 100) was 3.1%, the HPLC area counts ([5]; INT 100, 3.6 J/cm^2) was 396 and the HPLC area counts ([5]; INT 100, 7.2 J/cm^2) was 129. For the same molecule, the HPLC area counts ([5]; INT 100, 10.8 J/cm^2) was 56, the S-59 concentration post-illumination ([5]; INT-100, ~3.6 J/cm^2) was 32 µM and the S-59 concentration post-illumination ([5]; INT-100, ~7.2 J/cm^2) was 11 µM. For the same molecule, the S-59 concentration post-illumination ([5]; INT-100, ~10.8 J/cm^2) was 5 µM, the ATP ([6]; 340 nm) was 4.0 mmol/×10^8 and the Lysis ([6]; 340 nm) was 2.36%. For the same molecule, the “pH (37° C.)” value ([6]; 340 nm) was 6.61, the ATP ([6]; 365 nm) was 4.8 mmol/×10^8 and the Lysis ([6]; 365 nm) was 1.72%. The “pH (37° C.)” value ([6]; 365 nm) was 6.74, the ATP ([6]; INT 100) was 4.1 mmol/×10^8 and the Lysis ([6]; INT 100) was 2.25%. For the same molecule, the “pH (37° C.)” value ([6]; INT 100) was 6.60.
